We go through one compound from BindingDB's records for patent US9278914 (University of Tennessee Research Foundation, 2016).

Structures are written as SMILES.

The target in this data set is Cytochrome P450 2C9 (Homo sapiens, UniProt P11712). Briefly: In Vitro CYP Inhibition Assay. The conditions noted are these: 37 °C.
Chain of Cytochrome P450 2C9 (P11712 whole entry): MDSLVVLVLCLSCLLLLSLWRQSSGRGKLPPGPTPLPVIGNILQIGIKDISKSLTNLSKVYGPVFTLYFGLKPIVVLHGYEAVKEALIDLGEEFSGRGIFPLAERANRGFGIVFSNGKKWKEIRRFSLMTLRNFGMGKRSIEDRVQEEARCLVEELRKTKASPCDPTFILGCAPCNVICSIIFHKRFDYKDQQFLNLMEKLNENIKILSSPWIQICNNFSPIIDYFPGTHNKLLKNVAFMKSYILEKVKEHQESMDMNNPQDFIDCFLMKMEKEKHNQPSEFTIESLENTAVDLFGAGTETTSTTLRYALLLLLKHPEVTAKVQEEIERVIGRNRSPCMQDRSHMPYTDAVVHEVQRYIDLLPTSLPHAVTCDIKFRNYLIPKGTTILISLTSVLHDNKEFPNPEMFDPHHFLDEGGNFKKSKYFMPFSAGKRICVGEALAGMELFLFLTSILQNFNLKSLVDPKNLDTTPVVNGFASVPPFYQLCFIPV

For the compound `C[C@](O)(COc1ccc(Cl)c(F)c1)C(=O)Nc1ccc(C#N)c(C(F)(F)F)c1` [US9278914, S-II], the half-maximal inhibitory concentration (IC50) was above 20 µM.
